# Earlier results, collected in patent US20250161199A1, “FORMULATION FOR TREATING AND PREVENTING HAIR LOSS” (DR. BARR - MEDICINE AS ART LTD, priority 2023, published 2025).
# Test system: androgenic alopecia
# Details: in vivo
row,Structure (SMILES),time until effect becomes apparent
1,CC(C)(C)NC(=O)[C@H]1CC[C@H]2[C@@H]3CC[C@H]4NC(=O)C=C[C@]4(C)[C@H]3CC[C@]12C [finasteride],only after several months of treatment
2,C[C@]12C=CC(=O)N[C@@H]1CC[C@@H]1[C@@H]2CC[C@]2(C)[C@@H](C(=O)Nc3cc(C(F)(F)F)ccc3C(F)(F)F)CC[C@@H]12 [dutasteride],only after several months of treatment
